Results on two compounds are retold here after paper PMC4625925, “One amino acid makes the difference: the formation of ent-kaurene and 16α-hydroxy-ent-kaurane by diterpene synthases in poplar” (BMC Plant Biology, 2015).

Assay [1] addresses T1, PtTPS17 (Populus trichocarpa, UniProt A0A0S1TFB5).
T1 construct: N-terminally truncated (delta 65 aa, transit peptide removed), pET200 (N-terminal His tag), E. coli BL21(DE3), partially purified
T1 sequence (A0A0S1TFB5 66-795): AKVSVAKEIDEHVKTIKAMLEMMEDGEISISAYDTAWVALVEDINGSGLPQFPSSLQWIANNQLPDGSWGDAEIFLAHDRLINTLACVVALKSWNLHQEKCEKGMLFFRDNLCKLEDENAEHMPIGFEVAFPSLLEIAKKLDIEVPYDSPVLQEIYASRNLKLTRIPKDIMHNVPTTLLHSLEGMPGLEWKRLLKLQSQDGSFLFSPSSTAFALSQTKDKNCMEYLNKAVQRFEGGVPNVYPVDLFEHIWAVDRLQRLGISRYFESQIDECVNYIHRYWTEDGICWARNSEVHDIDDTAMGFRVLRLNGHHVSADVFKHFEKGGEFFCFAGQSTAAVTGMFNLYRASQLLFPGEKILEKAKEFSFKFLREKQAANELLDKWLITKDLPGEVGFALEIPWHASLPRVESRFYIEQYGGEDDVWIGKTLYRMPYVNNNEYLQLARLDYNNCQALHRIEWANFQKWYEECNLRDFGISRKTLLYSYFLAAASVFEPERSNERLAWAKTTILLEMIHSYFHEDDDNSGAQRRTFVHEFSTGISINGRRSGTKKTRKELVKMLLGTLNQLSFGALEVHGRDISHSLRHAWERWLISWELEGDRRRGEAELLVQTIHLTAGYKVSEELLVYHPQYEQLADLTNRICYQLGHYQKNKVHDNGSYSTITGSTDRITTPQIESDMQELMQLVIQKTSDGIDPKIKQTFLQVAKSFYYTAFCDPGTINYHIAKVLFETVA
The assay can be described thus: GC-MS product analysis. The assay is classed as biochemical. The conditions noted are these: 50 µM GGPP, 5 mM MgCl2, pH 7.5, 25 °C, 2 h; product ent-CPP detected as copalol.

Assay [2] has as its target T2, PtTPS19 (Populus trichocarpa, UniProt A0A0S1TJ32).
T2 construct: N-terminally truncated (delta 42 aa, transit peptide removed), pET200 (N-terminal His tag), E. coli BL21(DE3), partially purified
The experiment in a line: GC-MS product analysis, ent-CPP made in situ. In kind it is biochemical. The conditions noted are these: ent-CPP from GGPP by coupled PtTPS17; 5 mM MgCl2, pH 7.5, 25 °C, 2 h.

T2 sequence (A0A0S1TJ32 entry or part of it): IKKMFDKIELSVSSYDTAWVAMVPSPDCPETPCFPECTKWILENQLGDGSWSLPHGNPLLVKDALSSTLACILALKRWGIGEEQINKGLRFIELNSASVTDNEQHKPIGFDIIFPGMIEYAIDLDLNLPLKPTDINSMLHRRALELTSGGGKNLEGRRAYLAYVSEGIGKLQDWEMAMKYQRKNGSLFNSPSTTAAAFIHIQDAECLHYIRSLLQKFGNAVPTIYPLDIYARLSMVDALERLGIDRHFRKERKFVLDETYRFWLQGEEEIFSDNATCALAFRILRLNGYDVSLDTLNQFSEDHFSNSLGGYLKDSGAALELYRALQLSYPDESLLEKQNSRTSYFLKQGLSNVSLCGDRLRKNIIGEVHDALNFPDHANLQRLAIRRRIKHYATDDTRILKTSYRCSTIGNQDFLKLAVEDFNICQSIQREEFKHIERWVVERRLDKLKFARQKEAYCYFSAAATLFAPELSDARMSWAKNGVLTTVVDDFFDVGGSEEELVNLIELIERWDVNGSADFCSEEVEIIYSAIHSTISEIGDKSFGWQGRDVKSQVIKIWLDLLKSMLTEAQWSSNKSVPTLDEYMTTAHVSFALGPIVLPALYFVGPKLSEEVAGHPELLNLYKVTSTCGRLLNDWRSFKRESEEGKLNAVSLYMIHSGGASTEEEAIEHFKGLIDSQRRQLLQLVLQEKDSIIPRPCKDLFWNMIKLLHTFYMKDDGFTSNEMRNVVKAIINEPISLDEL

Take `CC(C)=CCC/C(C)=C/CC/C(C)=C/CC/C(C)=C/COP(=O)(O)OP(=O)(O)O` [(E,E,E)-GGPP]: in assay [1], the GC-MS product analysis entry is “When PtTPS17 was incubated with GGPP, copalol was detected”.

With `C=C1CC[C@@H]2C(C)(C)CCC[C@@]2(C)[C@@H]1CC/C(C)=C/COP(=O)(O)OP(=O)(O)O` [ent-CPP], in assay [2], the “GC-MS product analysis, ent-CPP made in situ” value is given as “PtTPS19 converted ent-CPP into ent-kaurene”.
